Earlier results as cited in patent publication US20100076052A1, “PERINDOPRIL FORMULATIONS” (priority 2008, published 2010).

- solubility in alcohol (alcohol): freely soluble
- solubility in chloroform (chloroform): freely soluble
- solubility in water (water): 60 % w/w
SMILES: CCCC(N[C@@H](C)C(=O)N1[C@H](C(=O)O)C[C@@H]2CCCC[C@@H]21)C(=O)OCC (stereo partly drawn) [Perindopril erbumine, (2S,3αS,7αS)-1-[(S)—N—[(S)-1-carboxybutyl]alanyl]hexahydro-2-indolinecarboxylic acid, 1-ethyl ester, compound with t-butylamine (1:1)]
